{"source": "patent US8541670B2", "about": "“Compositions and methods for inhibiting tumor cell growth” (priority 2007, dated 2013)", "molecular_target": "T1, p70S6K (Mus musculus, UniProt Q8BSK8)", "T1 construct": "from tissue; host or cells: mouse brain hemisphere", "T1 sequence (Q8BSK8 whole entry)": "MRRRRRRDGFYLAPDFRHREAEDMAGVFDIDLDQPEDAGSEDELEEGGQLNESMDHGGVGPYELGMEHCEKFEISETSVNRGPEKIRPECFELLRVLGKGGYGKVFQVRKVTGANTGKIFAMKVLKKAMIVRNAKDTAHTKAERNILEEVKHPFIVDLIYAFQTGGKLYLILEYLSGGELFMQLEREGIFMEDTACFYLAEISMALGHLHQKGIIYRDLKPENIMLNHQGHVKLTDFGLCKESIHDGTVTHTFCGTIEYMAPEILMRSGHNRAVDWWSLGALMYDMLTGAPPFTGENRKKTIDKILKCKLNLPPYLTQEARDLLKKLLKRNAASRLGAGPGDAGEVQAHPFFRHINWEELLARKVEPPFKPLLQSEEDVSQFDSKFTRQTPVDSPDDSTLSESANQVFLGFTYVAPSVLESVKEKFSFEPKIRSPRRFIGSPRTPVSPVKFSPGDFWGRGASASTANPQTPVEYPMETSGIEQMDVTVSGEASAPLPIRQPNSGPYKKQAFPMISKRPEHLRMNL", "experiment": "In vivo selectivity, western blot of phosphorylated substrate after injection into one hemisphere", "conditions": "versus DMSO hemisphere", "protocol": "To analyze in vivo selectivity, ZaTa was injected into one hemisphere and DMSO in the other hemisphere, as above, and a series of western blot analyses was preformed with phospho-specific antibodies which recognize a phosphorylated substrate or each one of the kinases that ZaTa inhibited at higher concentrations in vitro. […] Given the high functional and structural homology between p70S6K and AKT, the in vivo inhibitory effect of ZaTa on p70S6K was contemplated. Furthermore, the in vivo effect of ZaTa on the phosphorylation levels of substrates for PKA, PKC, CDKs using phospho-specific antibodies recognizing the phosphorylated consensus sites of these kinases was analyzed. In contrast to the consistent decrease in phosphorylation of AKT substrates, significant changes in the phosphorylation level of PKA, PKC and CDKs substrates was not observed after in vivo injection of ZaTa.\nPhosphorylation sites for kinases analyzed herein included Ser-235/236 S6 (a substrate for p70S6K), Tyr-207 CRKL (a substrate for Abl; Zipfel, et al. (2004) supra), Ser-241 PDK1 (a substrate for PI3K), Tyr-1022/1023 JAK1 (a substrate for JAK3; Wang, et al. (2003) supra), Ser-421 Huntingtin (a substrate for SGK; Rangone, et al. (2004) supra), Tyr-783 PLC (a substrate for TrkB; Middlemas, et al. (1994) supra), and Ser-338 cRaf (a substrate for PAK3; King, et al. (1998) supra).", "note": "Where no end group is shown, it is not given here."}
{"sequence": "AKRVKGRTWTLCGTPEY [ZaTa]", "values": [{"measurement": "in vivo inhibition of p70S6K", "result": "potent in vivo inhibition"}]}
